Assay results: patent US12012421B2, “Solid forms of [(1S)-1-[(2S,4R,5R)-5-(5-amino-2-oxo-thiazolo[4,5-d]pyrimidin-3-yl)-4-hydroxy-tetrahydrofuran-2-yl]propyl] acetate” (Hoffmann-La Roche Inc., priority 2018, dated 2024)
Where two headings read alike, the source gives them in different places. Values belong to the compound of their own block, whether it stands above or below them.

What was measured:
[1] = Physical stability of solid forms in stability chamber, solid form checked by XRPD; type: physicochemical; conditions: for Physical stability (solid form by XRPD compared with initial solid form): 40° C./75%-RH, 1 month; for Stability compared with Form Amorphous: comparison in words, accelerated storage 40° C./75%-RH
Description: 40 mg compound (I) in different solid forms were stored in a stability chamber with temperature and humidity controlled at 40° C. and 75%-RH, respectively. After 1 month, the samples were analyzed by XRPD to check their solid form and compared with their initial solid form.

[2] = Apparent solubility study in bio-relevant media; type: physicochemical; conditions: for Solubility: 25° C.; for Solubility / solubility at 24 h: 24 hours; for Apparent solubility compared with Form Amorphous: comparison in words; for solubility at 24 h: 25 °C, thermodynamic from solid
Description: Apparent solubility was determined by suspending 5 mg of compound (I) in different bio-relevant media including pH buffers, SGF, FaSSIF, and FeSSIF. The suspensions were equilibrated at 25° C. for 24 hours. The suspensions were then filtered through a 0.22 μm PVDF filter into a 2-mL HPLC vial. The quantitation of the filtrate was conducted by HPLC with reference to a standard solution.

[3] = Single dose PK (SDPK) study, oral suspension; type: in vivo, Wistar Han rat; conditions: for Cmax / Tmax: male, plasma, Wistar Han rat, n = 5; for Cmax: read-out: Cmax of Compound (I) (double prodrug) in plasma; for Tmax: read-out: Tmax of Compound (I) (double prodrug) in plasma
Description: Five male Wistar Han rats were administered a single oral dose of 100 or 200 mg/kg of compound (I) (either Form A or Form C). Drug was administered as a suspension in 2% klucel, 0.1% polysorbate 80 and 0.1% parabens in water. Samples were taken at various times up to 24 h and plasma was analysed for compound (I) (double prodrug), compound (Ia) (single prodrug) and compound (Ib) (single prodrug) and compound (III) (active Form).

[4] = Solid form conversion in aqueous compositions; type: physicochemical
Description: Form A as prepared in Example 10 was suspended in water to form a slurry at room temperature for 2 hours to afford Form B, then the solid was collected by filtration and dried under vacuum. Depending on the solvation status Form B can be a solvate, a hydrate or a polymorph of compound (I).

SMILES: CC[C@H](OC(C)=O)[C@@H]1C[C@@H](O)[C@H](n2c(=O)sc3cnc(N)nc32)O1 [Form Amorphous of compound (I), [(1S)-1-[(2S,4R,5R)-5-(5-amino-2-oxo-thiazolo[4,5-d]pyrimidin-3-yl)-4-hydroxy-tetrahydrofuran-2-yl]propyl] acetate]
Physical stability (solid form by XRPD compared with initial solid form) ([1]; listed as Example 1, Form Amorphous of compound (I)): solid form change
Tendency to form change ([1]; general finding in words): prone to crystallization
Solubility ([2]; FaSSIF, listed as Example 1, Form Amorphous of compound (I)): 6.93 mg/mL
Solubility ([2]; FeSSIF, listed as Example 1, Form Amorphous of compound (I)): 7.35 mg/mL
solubility at 24 h ([2]; SGF, simulated gastric fluid): > 10000 µg/mL
solubility at 24 h ([2]; pH 1 buffer, pH 1, simulated gastric fluid, pH1 buffer): > 10000 µg/mL
Solubility ([2]; pH3 buffer, listed as Example 1, Form Amorphous of compound (I)): 9.57 mg/mL
Solubility ([2]; pH5 buffer, listed as Example 1, Form Amorphous of compound (I)): 3.83 mg/mL
Solubility ([2]; pH7 buffer, listed as Example 1, Form Amorphous of compound (I)): 4.05 mg/mL
Solubility ([2]; pH9 buffer, listed as Example 1, Form Amorphous of compound (I)): 5.03 mg/mL

SMILES: CC[C@H](OC(C)=O)[C@@H]1C[C@@H](O)[C@H](n2c(=O)sc3cnc(N)nc32)O1 [Form B of compound (I), [(1S)-1-[(2S,4R,5R)-5-(5-amino-2-oxo-thiazolo[4,5-d]pyrimidin-3-yl)-4-hydroxy-tetrahydrofuran-2-yl]propyl] acetate]
Solid form conversion / stability in aqueous environment [4]: better stability in aqueous environment
Physical stability (solid form by XRPD compared with initial solid form) ([1]; listed as Example 11, Form B of compound (I)): no solid form change
Stability compared with Form Amorphous [1]: better stability
Solubility ([2]; FaSSIF, listed as Example 11, Form B of compound (I)): 3.82 mg/mL
Solubility ([2]; FeSSIF, listed as Example 11, Form B of compound (I)): 4.13 mg/mL
Solubility ([2]; SGF, listed as Example 11, Form B of compound (I)): >10 mg/mL
Solubility ([2]; pH1 buffer, listed as Example 11, Form B of compound (I)): >10 mg/mL
Solubility ([2]; pH3 buffer, listed as Example 11, Form B of compound (I)): 6.92 mg/mL
Solubility ([2]; pH5 buffer, listed as Example 11, Form B of compound (I)): 3.35 mg/mL
Solubility ([2]; pH7 buffer, listed as Example 11, Form B of compound (I)): 3.40 mg/mL
Solubility ([2]; pH9 buffer, listed as Example 11, Form B of compound (I)): 3.55 mg/mL

SMILES: CC[C@H](OC(C)=O)[C@@H]1C[C@@H](O)[C@H](n2c(=O)sc3cnc(N)nc32)O1 [Form A of compound (I), [(1S)-1-[(2S,4R,5R)-5-(5-amino-2-oxo-thiazolo[4,5-d]pyrimidin-3-yl)-4-hydroxy-tetrahydrofuran-2-yl]propyl] acetate]
Physical stability (solid form by XRPD compared with initial solid form) ([1]; listed as Example 10, Form A of compound (I)): no solid form change
Stability compared with Form Amorphous [1]: better stability
Solubility ([2]; FaSSIF, listed as Example 10, Form A of compound (I)): 6.33 mg/mL
Solubility ([2]; FeSSIF, listed as Example 10, Form A of compound (I)): 7.93 mg/mL
Solubility ([2]; SGF, listed as Example 10, Form A of compound (I)): >16.36 mg/mL
Solubility ([2]; pH1 buffer, listed as Example 10, Form A of compound (I)): >16.28 mg/mL
Solubility ([2]; pH3 buffer, listed as Example 10, Form A of compound (I)): 12.87 mg/mL
Solubility ([2]; pH5 buffer, listed as Example 10, Form A of compound (I)): 6.39 mg/mL
Solubility ([2]; pH7 buffer, listed as Example 10, Form A of compound (I)): 6.24 mg/mL
Solubility ([2]; pH9 buffer, listed as Example 10, Form A of compound (I)): 6.38 mg/mL
Conversion rate to the single prodrug in vivo ([3]; Form A at 100 mg/kg compared with Form C at 200 mg/kg, in words): faster conversion rate
Cmax ([3]; PO 100 mg/kg): 563 ng/mL
Tmax ([3]; PO 100 mg/kg): 90 min

Next, values leading:

Physical stability (solid form by XRPD compared with initial solid form) ([1]; listed as Example 2, Form C of compound (I)): no solid form change
Stability compared with Form Amorphous [1]: significantly improved stability
Stability compared with Form Amorphous ([1]; listed as Form C): better stability
Solubility ([2]; FaSSIF, listed as Example 2, Form C of compound (I)): 2.19 mg/mL
Solubility ([2]; FeSSIF, listed as Example 2, Form C of compound (I)): 2.78 mg/mL
Solubility ([2]; SGF, listed as Example 2, Form C of compound (I)): >10 mg/mL
Apparent solubility compared with Form Amorphous [2]: comparable apparent solubility
Solubility ([2]; pH1 buffer, listed as Example 2, Form C of compound (I)): >10 mg/mL
Solubility ([2]; pH3 buffer, listed as Example 2, Form C of compound (I)): 4.98 mg/mL
Solubility ([2]; pH5 buffer, listed as Example 2, Form C of compound (I)): 2.24 mg/mL
Solubility ([2]; pH7 buffer, listed as Example 2, Form C of compound (I)): 2.19 mg/mL
Solubility ([2]; pH9 buffer, listed as Example 2, Form C of compound (I)): 2.32 mg/mL
Cmax ([3]; PO 200 mg/kg): 259 ng/mL
Tmax ([3]; PO 200 mg/kg): 19.8 min
SMILES: CC[C@H](OC(C)=O)[C@@H]1C[C@@H](O)[C@H](n2c(=O)sc3cnc(N)nc32)O1 [Form C of compound (I), [(1S)-1-[(2S,4R,5R)-5-(5-amino-2-oxo-thiazolo[4,5-d]pyrimidin-3-yl)-4-hydroxy-tetrahydrofuran-2-yl]propyl] acetate]

Physical stability (solid form by XRPD compared with initial solid form) ([1]; listed as Example 12, Form G of compound (I)): no solid form change
Stability compared with Form Amorphous [1]: improved stability
Stability compared with Form Amorphous ([1]; listed as Form G): better stability
Solubility ([2]; FaSSIF, listed as Example 12, Form G of compound (I)): 2.49 mg/mL
Solubility ([2]; FeSSIF, listed as Example 12, Form G of compound (I)): 2.79 mg/mL
Solubility ([2]; SGF, listed as Example 12, Form G of compound (I)): >10 mg/mL
Apparent solubility compared with Form Amorphous [2]: comparable apparent solubility
Solubility ([2]; pH1 buffer, listed as Example 12, Form G of compound (I)): >10 mg/mL
Solubility ([2]; pH3 buffer, listed as Example 12, Form G of compound (I)): 6.44 mg/mL
Solubility ([2]; pH5 buffer, listed as Example 12, Form G of compound (I)): 3.75 mg/mL
Solubility ([2]; pH7 buffer, listed as Example 12, Form G of compound (I)): 3.70 mg/mL
Solubility ([2]; pH9 buffer, listed as Example 12, Form G of compound (I)): 3.64 mg/mL
SMILES: CC[C@H](OC(C)=O)[C@@H]1C[C@@H](O)[C@H](n2c(=O)sc3cnc(N)nc32)O1 [Form G of compound (I), [(1S)-1-[(2S,4R,5R)-5-(5-amino-2-oxo-thiazolo[4,5-d]pyrimidin-3-yl)-4-hydroxy-tetrahydrofuran-2-yl]propyl] acetate]
